Reference: publication PMC10475101, “Selective steroidogenic cytochrome P450 haem iron ligation by steroid-derived isonitriles” (Communications Chemistry, 2023)
Values joined by “and” are separate entries in the source; they are usually repeats but may differ in a detail not shown here. Equal values may be shown once.

How the values were obtained:
CYP2D6 L230D/L231R = molecular target: T1, CYP2D6 L230D/L231R (Homo sapiens, UniProt P10635, L230D/L231R); experiment: Ligand binding assay (UV-visible difference spectra titration)
T1 construct: made in house
T1 sequence (P10635 whole entry L230D/L231R): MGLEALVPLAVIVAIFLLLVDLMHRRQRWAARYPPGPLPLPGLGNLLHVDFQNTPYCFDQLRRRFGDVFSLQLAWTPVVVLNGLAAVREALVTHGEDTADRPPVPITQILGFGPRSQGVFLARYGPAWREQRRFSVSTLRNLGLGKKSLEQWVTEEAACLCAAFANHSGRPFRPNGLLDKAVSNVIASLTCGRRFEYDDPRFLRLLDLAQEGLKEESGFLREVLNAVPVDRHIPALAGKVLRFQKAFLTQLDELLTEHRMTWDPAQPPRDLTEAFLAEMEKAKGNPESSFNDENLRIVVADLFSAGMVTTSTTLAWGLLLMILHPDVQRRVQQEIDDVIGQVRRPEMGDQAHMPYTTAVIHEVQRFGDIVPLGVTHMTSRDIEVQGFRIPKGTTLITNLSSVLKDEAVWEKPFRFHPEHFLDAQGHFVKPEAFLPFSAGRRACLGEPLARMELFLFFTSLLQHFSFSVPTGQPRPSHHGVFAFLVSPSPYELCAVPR
Procedure: (§1) (Adapted from DeVore, et al.)[25] Ligand interaction with the heme iron was evaluated by titrating ligands into a cuvette containing purified CYP17A1[14], CYP2D6 L230D/L231R[26], or CYP3A4[27] and measured using a UV-visible scanning spectrophotometer. Enzyme was diluted to 0.2 µM in 100 mM potassium phosphate buffer (pH 7.4), 20% glycerol, and 100 mM sodium chloride and divided equally between two 5 mL cuvettes to evaluate high-affinity binding. Ligands dissolved in dimethylsulfoxide (DMSO) were added to the sample cuvette and an equal volume of DMSO to the reference cuvette. Difference spectra were recorded from 300 to 500 nm after equilibration of enzyme and ligand. Binding to the enzyme was measured as the difference in maximal and minimal absorbance: A387—A419 for pregnanolone and 3-formyl pregnanolone, and A435—A393 for compound 1 with CYP17A1; A434—A414 for compound 1 with CYP3A4 and CYP2D6. The dissociation constant and maximum spectral change were calculated using tight-binding or quadratic equation. All data fitting was accomplished using GraphPad Prism 9. Details of fitting are provided in Supplementary Information, and numerical data used to generate graphs in Figs. 2, 4 and 5 are provided in Supplementary Data 3 in Excel format.

CYP17A1 = molecular target: T2, CYP17A1 (Homo sapiens, UniProt P05093); experiment: as above
T2 construct: made in house
T2 sequence (P05093 1-508): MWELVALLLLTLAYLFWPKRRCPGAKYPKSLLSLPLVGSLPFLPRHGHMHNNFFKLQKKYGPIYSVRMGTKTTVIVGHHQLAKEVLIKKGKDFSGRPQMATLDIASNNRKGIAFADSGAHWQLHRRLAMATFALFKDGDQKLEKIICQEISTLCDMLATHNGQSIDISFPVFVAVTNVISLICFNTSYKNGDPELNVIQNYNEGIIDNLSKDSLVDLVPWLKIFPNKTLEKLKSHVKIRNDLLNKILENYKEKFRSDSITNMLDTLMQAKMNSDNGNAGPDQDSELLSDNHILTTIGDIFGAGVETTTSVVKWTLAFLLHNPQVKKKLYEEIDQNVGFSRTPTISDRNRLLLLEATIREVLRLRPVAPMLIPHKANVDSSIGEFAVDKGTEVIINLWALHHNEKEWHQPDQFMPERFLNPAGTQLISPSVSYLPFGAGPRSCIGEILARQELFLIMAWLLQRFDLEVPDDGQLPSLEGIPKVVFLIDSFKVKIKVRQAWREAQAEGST
Procedure: as §1

CYP3A4 = molecular target: T3, CYP3A4 (Homo sapiens, UniProt P08684); assay type: biochemical; settings: concentrations up to 100 µM
T3 construct: made in house
T3 sequence (P08684 23-503 limits assumed): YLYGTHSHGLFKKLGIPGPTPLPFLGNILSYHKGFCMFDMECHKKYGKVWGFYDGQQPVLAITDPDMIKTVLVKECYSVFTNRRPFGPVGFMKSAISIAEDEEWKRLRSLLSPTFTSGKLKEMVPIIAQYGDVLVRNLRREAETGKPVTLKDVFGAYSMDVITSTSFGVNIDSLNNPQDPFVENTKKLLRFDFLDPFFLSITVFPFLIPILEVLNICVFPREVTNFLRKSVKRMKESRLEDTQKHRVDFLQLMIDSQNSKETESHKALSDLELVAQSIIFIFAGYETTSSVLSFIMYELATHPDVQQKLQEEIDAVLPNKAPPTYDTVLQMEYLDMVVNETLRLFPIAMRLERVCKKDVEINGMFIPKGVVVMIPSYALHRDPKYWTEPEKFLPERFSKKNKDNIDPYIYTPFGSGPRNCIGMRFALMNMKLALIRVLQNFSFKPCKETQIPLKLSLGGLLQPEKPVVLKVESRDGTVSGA
Procedure: (Adapted from Bart & Scott)[28]. Metabolic activity of CYP3A4 was evaluated by measuring metabolism of nifedipine to dehydronifedipine […], as detected by HPLC with UV detection at 254 nm. Reactions were carried out in amber microcentrifuge tubes (NFP is light sensitive) in a final volume of 150 μl. A 1:2 ratio of CYP3A4 to recombinant NADPH-cytochrome P450 reductase was mixed and incubated at room temperature for 20 min. This mixture was added to buffer (40 mM HEPES, 30 mM MgCl2, pH 7.4) containing 0.1 mM NFP and increasing concentrations of 1c (0–100 µM). Reaction vials were warmed to 37 °C for 3 min, then catalysis was initiated by adding NADPH to a final concentration of 1 mM. After 20 min, metabolism was quenched by adding 50 µL acetonitrile and placed on ice. […]
187 a baseline absorbance reading from 400 to 500 nm using a UV-visible scanning spectrophotometer, of a 1cm […]
190 phosphate buffer (pH 7.4), 20% glycerol, and 100 mM sodium chloride). A small quantity of sodium dithionite
191 (spatula tip-full) was then added to the cuvette, and the spectra were recorded periodically over time to […]
195 Metabolic activity of CYP17A1 was evaluated by measuring 17α-hydroxylation of progesterone as detected […]
212 dehydronifedipine, as detected by HPLC with UV detection at 254 nm. […]

[C-]#[N+][C@H](C)[C@H]1CC[C@H]2[C@@H]3CC[C@H]4C[C@@H](OC=O)CC[C@]4(C)[C@H]3CC[C@]12C [Compound 1, 3β-formyl-5α-pregnanolone-(R)-20-isonitrile]
dissociation constant for CYP2D6 relative to CYP17A1 (CYP2D6 L230D/L231R; CYP2D6 versus CYP17A1): 3 million | Kd (CYP2D6 L230D/L231R; protein 200 nM, 5 cm cuvette, n = 2, 95% CI undefined –6.4 nM, read-out: dissociation constant (Kd)): 490 pM and ~490 pM | Fe—CN—R bond formation on titration (CYP2D6 L230D/L231R; titration of CYP2D6): indicated the formation of the Fe—CN—R bond | Soret peak shift in difference spectra (CYP17A1; 2:1 mixture of C20 epimers of 1): 430 nm | Soret peak after titration (heme spectral shift from 417 nm water-bound) (CYP17A1; ferric CYP17A1, 430 nm = Fe—C isonitrile bond, 424 nm = type II Fe—N): 430 nm | dissociation constant estimate (tight binding equation fit) (CYP17A1; protein 200 nM, 95% CI undefined to 1.7 nM): 149 aM | inhibition of CYP3A4-catalyzed nifedipine oxidation (CYP3A4): no inhibition
